ChEMBL document CHEMBL1201862, “PubChem BioAssay data set” (2004)
Calls of active or inactive are those of the source.

Legend:
Genome polyprotein = Genome polyprotein (dengue virus type 2, UniProt P29990); test: flavivirus cap methylation enzyme inhibition – biochemical, confirmation dose response, primary screen (AID 588689); assay type: functional
[1] = target: T1, Carboxy-terminal domain RNA polymerase II polypeptide A small phosphatase 1 (Homo sapiens, UniProt Q9GZU7); test: CTDSP1 inhibitors, concentration-response, biochemical, absorbance readout, ultra-high-throughput screen actives (AID 540297); assay type: functional
T1 sequence (Q9GZU7 whole entry): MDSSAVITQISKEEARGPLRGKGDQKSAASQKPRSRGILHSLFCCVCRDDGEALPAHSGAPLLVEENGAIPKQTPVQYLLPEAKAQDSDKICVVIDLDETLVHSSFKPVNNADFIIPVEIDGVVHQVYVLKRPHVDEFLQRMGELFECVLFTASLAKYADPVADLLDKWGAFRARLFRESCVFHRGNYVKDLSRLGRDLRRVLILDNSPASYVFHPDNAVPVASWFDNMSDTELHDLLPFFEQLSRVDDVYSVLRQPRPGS

[2] = target: Voltage-dependent T-type calcium channel subunit alpha-1H (Homo sapiens, UniProt O95180); assay type: functional;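 note: channel activity triggered by adding a high calcium stimulation buffer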
[3] = A Cell Based Secondary Assay To Explore Cytotoxicity of Compounds that Sensitize Mycobacterium Tuberculosis to Beta-Lactam Antibiotics.; assay type: functional
[4] = test system: Streptococcus sp. 'group A'; test: Streptococcus pyogenes SK(-)GAS viability under kanamycin – luminescence, BacTiterGlo, confirmation, counter-screen for streptokinase expression inhibitor project, dose response (AID 1900); assay type: functional, organism-based
[5] = fluconazole-exposed Candida albicans growth modulators – fluorescence, retest, confirmation (AID 2467); assay type: functional, cell-based
[6] = NIH-3T3 fibroblast cytotoxicity, dose response, cytotoxicity control, cell-based, fluorescence, Alamar Blue, secondary assay (AID 2327); assay type: functional;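 note: NIH-3T3 mouse fibroblasts cultured with fluconazole at 8 µg/mL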
Streptococcus = test: GAS UMAA2166 growth inhibition – luminescence, BacTiterGlo, counter-screen for streptokinase expression inhibitor project, dose response (AID 1915); assay type: functional, organism-based;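 note: potency for reduction of bacterial viability or growth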
[7] = target: T2, Short transient receptor potential channel 4 (Mus musculus, UniProt Q9QUQ5); test: calcium entry via TRPC4 opening agents – cell-based, HEK293 TRPC4/mu-opioid, Fluo-4 calcium, dose response (AID 434937); assay type: functional
T2 sequence (Q9QUQ5 whole entry): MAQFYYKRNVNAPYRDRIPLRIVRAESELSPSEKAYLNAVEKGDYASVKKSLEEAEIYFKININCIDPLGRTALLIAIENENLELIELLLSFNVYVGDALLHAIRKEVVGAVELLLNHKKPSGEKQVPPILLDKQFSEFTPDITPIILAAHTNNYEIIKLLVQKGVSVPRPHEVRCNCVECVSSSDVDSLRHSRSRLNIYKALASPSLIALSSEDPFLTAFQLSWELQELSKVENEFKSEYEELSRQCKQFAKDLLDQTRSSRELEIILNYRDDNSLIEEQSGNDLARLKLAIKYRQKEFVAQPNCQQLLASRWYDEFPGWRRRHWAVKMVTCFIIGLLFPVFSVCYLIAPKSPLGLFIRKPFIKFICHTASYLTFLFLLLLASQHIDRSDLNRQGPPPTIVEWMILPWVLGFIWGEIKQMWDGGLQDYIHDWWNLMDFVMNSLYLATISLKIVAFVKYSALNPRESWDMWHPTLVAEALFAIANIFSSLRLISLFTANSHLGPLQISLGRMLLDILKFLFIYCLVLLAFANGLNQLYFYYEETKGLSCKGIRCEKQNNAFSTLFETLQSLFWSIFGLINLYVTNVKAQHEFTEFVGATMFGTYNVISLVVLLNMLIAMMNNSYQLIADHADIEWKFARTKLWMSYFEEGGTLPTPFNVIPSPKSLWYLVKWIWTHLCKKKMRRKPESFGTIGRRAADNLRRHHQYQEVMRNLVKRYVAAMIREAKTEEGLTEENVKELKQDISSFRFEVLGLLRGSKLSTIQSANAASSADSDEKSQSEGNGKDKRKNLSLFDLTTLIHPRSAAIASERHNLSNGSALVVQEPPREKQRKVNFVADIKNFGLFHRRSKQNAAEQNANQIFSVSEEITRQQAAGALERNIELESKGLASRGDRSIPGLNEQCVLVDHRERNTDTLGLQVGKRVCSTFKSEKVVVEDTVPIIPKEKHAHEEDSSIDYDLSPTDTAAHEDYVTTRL

Beta-galactosidase = Beta-galactosidase (Escherichia coli, UniProt Q8VNN2); test: detection-enzyme interference by beta-gal modulators – biochemical, E. coli enzyme, set 3, artefact control for CCR6 antagonist project, dose response (AID 504712); assay type: functional
[8] = target: Glyceraldehyde-3-phosphate dehydrogenase (Homo sapiens, UniProt P04406)
INS1 = test: INS-1E survival protection against cytokine death – cell-based, luminescence, retest, dose response (AID 449756); assay type: functional; conditions: Rattus norvegicus, INS1;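 note: cell death triggered by IL-1 beta plus TNF-alpha plus IFN-gamma mixture; protective hits raise ATP signal compared with cytokine alone wells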
[9] = Luminescence Cell-Based Dose Retest to Confirm Inhibitors of Cancer Stem Cells. [Related pubchem assays (depositor defined):AID2717, AID2721]; assay type: functional; conditions: Homo sapiens
cells [10] = test: cells
[11] = viability of uninfected HEp-2 cells – cell-based, HTS, cytotoxicity control for RSV inhibitor project, dose response (AID 2410); assay type: functional; conditions: human respiratory syncytial virus
[12] = Luminescence Cell-Based Dose Response HTS to Identify Activators of Luciferase Translation or Activity in H4 […] Cells. [Related pubchem assays: 1829 (Project Summary), 1814 (Primary HTS)]; assay type: functional
H4 = test: Luminescence Cell-Based Dose Response HTS to Identify Activators of 5'UTR Stem-Loop Driven Prion Protein mRNA Translation in H4 Neuroglioblastoma Cells. [Related pubchem assays: 1829 (Project Summary), 1814 (Primary HTS)]; assay type: functional; conditions: Homo sapiens
[13] = Luminescence Cell-Based Dose Confirmation HTS to Identify Activators of 5'UTR Stem-Loop Driven Alpha-Synuclein mRNA Translation in H4 Neuroglioblastoma Cells. [Related pubchem assays: 1829 (Project Summary), 1814 (Primary HTS)]; assay type: functional
HEK293 [14] = test: cells; assay type: functional, cell-based; conditions: Homo sapiens
HEK293 [15] = test: NOD2 signaling inhibitors in MDP-stimulated cells, cell-based, uHTS, luminescence (AID 2001); assay type: functional; conditions: Homo sapiens
HEK293 [16] = test: cells; assay type: functional, cell-based; conditions: Homo sapiens; remark: listed apart in the source
Tumor necrosis factor = Tumor necrosis factor (Homo sapiens, UniProt P01375); test: analog potency on TNFa NF-kB signaling – cell-based, revised, SAR follow-up (AID 2337); assay type: functional
HEK293 [17] = test: inhibition of NOD1-driven NF-kB reporter – cell-based, luminescence, uHTS, primary screen (AID 1578); assay type: functional; conditions: Homo sapiens
[18] = target: T3, Nucleotide-binding oligomerization domain-containing protein 1 (Homo sapiens, UniProt Q9Y239); test: blockers of NOD1 pathway activity – revised, SAR follow-up (AID 2333); assay type: functional
T3 sequence (Q9Y239 whole entry): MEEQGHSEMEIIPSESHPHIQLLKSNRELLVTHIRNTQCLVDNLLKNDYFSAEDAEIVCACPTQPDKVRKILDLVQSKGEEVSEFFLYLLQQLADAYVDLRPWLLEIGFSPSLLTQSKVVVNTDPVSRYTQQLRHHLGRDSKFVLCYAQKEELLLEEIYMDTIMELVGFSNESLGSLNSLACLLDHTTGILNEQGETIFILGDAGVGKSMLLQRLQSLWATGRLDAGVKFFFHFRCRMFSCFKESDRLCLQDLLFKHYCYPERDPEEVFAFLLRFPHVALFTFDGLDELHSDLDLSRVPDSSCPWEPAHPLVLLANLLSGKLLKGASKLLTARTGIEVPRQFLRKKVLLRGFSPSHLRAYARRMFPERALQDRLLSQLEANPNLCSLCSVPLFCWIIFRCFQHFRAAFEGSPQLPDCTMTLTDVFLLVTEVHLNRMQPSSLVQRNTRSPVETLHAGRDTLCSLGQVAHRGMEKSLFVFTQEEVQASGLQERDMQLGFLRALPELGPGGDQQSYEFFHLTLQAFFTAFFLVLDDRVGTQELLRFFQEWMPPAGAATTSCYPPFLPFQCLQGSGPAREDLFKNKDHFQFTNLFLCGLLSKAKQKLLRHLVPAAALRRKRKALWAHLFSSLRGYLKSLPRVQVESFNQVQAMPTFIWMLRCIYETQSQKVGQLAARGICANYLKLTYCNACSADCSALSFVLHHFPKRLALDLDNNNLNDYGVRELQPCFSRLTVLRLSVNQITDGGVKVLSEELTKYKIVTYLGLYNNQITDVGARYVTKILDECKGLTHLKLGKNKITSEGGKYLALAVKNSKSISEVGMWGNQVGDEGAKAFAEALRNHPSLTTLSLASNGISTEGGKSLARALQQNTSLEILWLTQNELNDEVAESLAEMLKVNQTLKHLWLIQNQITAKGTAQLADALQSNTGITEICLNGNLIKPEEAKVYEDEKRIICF

HEK293 [19] = test: cells; conditions: Homo sapiens
cells [20] = assay type: functional
[21] = target: T4, Microphthalmia-associated transcription factor (Homo sapiens, UniProt O75030); test: reducers of TRPM1 reporter luminescence, concentration series – cell-based, SK-MEL-5, cherry-picked, set 3, MITF inhibitor project, dose response (AID 493073); assay type: functional;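 note: SK-MEL-5 melanoma cells with luciferase driven by the MITF target TRPM1 promoter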
T4 sequence (O75030 whole entry): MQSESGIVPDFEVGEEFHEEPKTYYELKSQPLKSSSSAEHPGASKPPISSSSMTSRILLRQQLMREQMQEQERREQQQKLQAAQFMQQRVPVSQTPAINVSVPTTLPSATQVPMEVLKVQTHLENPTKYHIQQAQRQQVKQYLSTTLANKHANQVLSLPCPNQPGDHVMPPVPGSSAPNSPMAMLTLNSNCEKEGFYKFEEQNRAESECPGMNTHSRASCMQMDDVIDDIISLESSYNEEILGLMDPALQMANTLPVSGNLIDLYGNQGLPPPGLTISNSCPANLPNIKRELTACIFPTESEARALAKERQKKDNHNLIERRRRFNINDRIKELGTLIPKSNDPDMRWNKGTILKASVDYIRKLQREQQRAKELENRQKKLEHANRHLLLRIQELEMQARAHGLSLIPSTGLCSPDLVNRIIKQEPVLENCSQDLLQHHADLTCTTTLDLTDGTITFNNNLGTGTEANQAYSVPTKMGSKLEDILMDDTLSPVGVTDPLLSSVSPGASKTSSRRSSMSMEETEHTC

Voltage-dependent T-type calcium channel subunit alpha-1H, sequence (O95180 whole entry): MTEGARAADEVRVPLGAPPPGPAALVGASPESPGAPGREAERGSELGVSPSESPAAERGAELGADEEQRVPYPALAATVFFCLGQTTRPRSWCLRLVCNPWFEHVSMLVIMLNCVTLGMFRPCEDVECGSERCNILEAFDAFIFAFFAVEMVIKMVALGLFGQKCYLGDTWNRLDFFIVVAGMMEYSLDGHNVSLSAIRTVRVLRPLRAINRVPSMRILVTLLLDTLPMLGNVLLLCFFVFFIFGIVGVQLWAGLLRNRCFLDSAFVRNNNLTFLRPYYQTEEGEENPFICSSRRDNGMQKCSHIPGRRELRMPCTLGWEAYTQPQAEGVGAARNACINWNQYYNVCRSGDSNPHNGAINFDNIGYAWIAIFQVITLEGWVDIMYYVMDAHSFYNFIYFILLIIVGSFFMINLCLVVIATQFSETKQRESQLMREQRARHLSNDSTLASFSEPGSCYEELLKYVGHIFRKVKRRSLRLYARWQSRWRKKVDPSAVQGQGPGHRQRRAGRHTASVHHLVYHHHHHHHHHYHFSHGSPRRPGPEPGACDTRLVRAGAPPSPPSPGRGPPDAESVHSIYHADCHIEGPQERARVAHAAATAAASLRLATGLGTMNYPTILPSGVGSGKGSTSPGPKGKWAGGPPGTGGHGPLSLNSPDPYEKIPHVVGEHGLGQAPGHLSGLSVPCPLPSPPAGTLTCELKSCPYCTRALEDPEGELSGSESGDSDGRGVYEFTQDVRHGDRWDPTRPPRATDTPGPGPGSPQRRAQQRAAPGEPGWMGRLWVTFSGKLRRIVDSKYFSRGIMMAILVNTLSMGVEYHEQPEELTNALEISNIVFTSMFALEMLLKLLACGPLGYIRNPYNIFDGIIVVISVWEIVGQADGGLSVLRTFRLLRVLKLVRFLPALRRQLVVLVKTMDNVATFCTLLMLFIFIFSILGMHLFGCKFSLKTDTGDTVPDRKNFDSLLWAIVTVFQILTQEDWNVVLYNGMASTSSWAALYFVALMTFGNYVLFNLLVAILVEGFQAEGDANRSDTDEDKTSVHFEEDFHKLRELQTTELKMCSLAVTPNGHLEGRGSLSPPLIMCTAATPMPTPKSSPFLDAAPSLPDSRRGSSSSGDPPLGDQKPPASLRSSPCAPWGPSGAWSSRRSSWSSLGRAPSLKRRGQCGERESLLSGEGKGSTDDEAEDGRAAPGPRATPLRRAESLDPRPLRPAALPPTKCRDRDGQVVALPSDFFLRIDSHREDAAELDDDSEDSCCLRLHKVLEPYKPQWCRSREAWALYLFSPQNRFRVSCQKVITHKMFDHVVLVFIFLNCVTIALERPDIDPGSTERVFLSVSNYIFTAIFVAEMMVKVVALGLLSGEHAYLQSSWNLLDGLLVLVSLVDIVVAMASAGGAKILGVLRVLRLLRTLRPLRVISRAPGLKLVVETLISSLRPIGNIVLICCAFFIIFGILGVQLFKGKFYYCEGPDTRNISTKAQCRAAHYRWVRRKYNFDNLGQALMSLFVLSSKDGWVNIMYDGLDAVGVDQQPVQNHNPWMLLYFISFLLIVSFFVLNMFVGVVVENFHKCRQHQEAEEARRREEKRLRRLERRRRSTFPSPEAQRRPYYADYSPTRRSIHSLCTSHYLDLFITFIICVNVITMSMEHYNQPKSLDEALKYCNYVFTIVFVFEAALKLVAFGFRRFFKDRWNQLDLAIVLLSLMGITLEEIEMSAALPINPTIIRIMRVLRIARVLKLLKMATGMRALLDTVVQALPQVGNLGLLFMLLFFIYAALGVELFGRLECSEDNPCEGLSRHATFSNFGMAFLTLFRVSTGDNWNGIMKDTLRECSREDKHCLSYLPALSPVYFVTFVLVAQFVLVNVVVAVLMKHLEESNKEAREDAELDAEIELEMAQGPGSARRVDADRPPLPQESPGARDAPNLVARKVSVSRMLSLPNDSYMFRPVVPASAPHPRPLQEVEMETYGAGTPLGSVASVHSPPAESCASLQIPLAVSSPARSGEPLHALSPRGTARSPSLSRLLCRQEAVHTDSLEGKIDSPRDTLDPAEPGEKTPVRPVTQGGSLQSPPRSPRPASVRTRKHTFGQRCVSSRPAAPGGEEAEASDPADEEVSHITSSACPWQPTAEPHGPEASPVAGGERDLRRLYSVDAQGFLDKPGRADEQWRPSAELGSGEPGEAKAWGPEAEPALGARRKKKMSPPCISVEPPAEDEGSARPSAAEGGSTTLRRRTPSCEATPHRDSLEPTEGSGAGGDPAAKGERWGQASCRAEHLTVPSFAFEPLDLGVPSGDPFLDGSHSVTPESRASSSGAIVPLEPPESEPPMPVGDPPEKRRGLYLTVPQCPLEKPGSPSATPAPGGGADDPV
Genome polyprotein, sequence (P29990 2492-3391 limits assumed): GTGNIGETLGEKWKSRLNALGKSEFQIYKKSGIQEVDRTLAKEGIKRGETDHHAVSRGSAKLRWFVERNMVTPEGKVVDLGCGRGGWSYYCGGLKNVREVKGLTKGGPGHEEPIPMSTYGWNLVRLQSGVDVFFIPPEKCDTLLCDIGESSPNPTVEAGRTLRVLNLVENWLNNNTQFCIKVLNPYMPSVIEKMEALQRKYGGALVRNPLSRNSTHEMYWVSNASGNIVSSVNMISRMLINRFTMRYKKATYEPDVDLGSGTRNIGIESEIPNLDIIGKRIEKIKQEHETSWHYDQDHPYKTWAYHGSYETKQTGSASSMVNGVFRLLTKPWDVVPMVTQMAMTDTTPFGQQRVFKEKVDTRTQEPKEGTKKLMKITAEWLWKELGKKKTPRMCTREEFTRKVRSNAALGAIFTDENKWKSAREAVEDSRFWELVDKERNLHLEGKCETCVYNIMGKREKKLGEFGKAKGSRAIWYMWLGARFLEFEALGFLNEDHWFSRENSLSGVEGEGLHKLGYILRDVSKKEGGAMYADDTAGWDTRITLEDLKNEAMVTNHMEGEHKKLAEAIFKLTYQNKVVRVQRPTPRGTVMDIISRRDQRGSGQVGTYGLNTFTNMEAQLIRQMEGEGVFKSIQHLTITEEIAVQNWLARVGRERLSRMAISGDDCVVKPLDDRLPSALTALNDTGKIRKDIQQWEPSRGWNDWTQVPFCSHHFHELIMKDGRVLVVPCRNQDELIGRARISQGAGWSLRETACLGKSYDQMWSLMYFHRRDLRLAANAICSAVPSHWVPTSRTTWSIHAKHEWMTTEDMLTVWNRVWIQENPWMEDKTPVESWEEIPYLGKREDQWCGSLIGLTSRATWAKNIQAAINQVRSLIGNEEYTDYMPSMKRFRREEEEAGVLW
Glyceraldehyde-3-phosphate dehydrogenase, sequence (P04406 whole entry): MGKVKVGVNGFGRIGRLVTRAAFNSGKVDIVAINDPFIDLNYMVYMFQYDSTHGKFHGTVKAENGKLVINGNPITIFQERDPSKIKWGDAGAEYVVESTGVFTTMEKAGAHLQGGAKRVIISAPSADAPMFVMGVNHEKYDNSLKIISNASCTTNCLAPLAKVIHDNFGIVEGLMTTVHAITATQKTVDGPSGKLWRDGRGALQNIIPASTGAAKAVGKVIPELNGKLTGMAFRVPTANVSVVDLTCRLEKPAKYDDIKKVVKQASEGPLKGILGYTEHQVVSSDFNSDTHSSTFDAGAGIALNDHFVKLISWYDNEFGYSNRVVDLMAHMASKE
Beta-galactosidase, sequence (Q8VNN2 whole entry): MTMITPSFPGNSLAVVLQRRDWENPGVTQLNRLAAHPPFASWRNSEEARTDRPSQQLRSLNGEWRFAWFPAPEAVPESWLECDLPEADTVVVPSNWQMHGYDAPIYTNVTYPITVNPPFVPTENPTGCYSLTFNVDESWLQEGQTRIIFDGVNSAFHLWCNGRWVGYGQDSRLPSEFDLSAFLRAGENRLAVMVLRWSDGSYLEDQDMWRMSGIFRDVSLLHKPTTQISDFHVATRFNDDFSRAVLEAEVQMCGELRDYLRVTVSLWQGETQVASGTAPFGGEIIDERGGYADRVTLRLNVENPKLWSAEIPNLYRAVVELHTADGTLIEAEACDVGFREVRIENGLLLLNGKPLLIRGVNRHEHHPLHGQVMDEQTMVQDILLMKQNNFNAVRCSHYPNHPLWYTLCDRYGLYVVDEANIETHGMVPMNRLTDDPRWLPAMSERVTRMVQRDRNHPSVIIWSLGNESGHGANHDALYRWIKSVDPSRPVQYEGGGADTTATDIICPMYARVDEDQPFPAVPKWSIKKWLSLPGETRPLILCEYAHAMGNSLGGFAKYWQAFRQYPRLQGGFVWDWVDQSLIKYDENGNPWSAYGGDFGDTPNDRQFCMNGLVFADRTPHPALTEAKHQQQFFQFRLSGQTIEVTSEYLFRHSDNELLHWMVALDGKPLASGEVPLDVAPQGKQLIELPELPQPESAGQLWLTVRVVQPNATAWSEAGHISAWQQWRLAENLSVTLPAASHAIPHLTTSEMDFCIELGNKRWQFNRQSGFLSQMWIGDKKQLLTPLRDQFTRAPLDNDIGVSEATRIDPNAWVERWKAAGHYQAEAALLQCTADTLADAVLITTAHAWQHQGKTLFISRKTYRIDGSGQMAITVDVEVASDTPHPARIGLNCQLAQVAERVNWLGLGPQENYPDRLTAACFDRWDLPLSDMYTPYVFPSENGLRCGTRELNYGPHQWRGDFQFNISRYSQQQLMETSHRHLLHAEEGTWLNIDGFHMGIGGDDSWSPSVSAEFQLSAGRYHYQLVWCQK
Tumor necrosis factor, sequence (P01375 whole entry): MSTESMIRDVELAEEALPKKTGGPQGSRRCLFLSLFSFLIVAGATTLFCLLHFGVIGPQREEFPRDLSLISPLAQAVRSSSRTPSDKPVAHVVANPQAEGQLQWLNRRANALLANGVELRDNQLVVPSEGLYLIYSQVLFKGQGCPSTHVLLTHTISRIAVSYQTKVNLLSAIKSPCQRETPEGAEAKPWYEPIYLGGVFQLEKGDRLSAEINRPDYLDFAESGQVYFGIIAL

## O=C(O)CN1C(=O)/C(=C2\C(=O)N(Cc3ccccc3Cl)c3ccccc32)SC1=S
Genome polyprotein
  IC50: 28.2 µM (active)
[1]
  IC50: 2.61 µM (active)

## O=S(=O)(c1ccc(Cl)cc1)N1CCCC1c1nc2ccccc2s1 (stereo not drawn)
[2]
  EC50: 6.61 µM (active)

## CSc1ncccc1C(=O)Nc1nc2ccc(Oc3ccccc3)cc2s1
[3]
  CC50: > 40 µM (active)

## O=C(COc1ccccc1)NNC(=S)NC(=O)c1ccc(Cl)cc1Cl
[4]
  EC50: 0.623 µM (active)
[5]
  EC50: > 38 µM (not active)
[6]
  EC50: 110 µM (active)
Streptococcus
  EC50: 2.96 µM (active)
[7]
  EC50: 4.73 µM (active)

## Cc1cc([N+](=O)[O-])ccc1NC(=S)NC(=O)Cc1ccccc1
Beta-galactosidase
  IC50: > 66.6 µM (inactive)

## O=C(NC1CC1)C1=C[C@H](c2csc3ccccc23)C[C@H](OCc2ccc(CO)cc2)O1
[7]
  EC50: 10.6 µM (active)

## COc1cccc(N2C(=O)C(Cl)=C(N3CCN[C@@H](C)C3)C2=O)c1
[8]
  IC50: > 50 µM (inconclusive)

## CC(=O)NC(c1cc(Cl)c2cccnc2c1O)C1CC1 (stereo not drawn)
[3]
  CC50: 5.47 µM (active)
INS1
  AC50: 1.91 µM (active)
[9]
  AC50: 3.26 µM (active)

## CCOC(=O)Cc1c(C)c2c(O)cc(O)cc2oc1=O
Cells [10]
  IC50: 15.1 µM (active)
[11]
  CC50: 47.7 µM (active)

## O=C(CC1C(=O)NCCN1Cc1ccc(-c2ccccc2)cc1)NCCc1ccccn1 (stereo not drawn)
[7]
  EC50: 4.73 µM (active)

## COc1ccc(C(=O)/C=C/c2cccs2)c(OC(=O)c2cccc([N+](=O)[O-])c2)c1
[3]
  CC50: 38.5 µM (active)
[12]
  EC50: 4.7 µM (active)
H4
  EC50: 10.6 µM (active)
[13]
  EC50: > 120 µM (not active)

## CCOC(=O)C1(Cc2ccccc2)CCN(Cc2c[nH]nc2-c2ccccc2)CC1
[7]
  EC50: 6.68 µM (active)

## CCOc1ccc(-c2cc(C(=O)O)c3ccccc3n2)c(OCC)c1
Cells [10]
  IC50: 19.7 µM (active)
[11]
  CC50: 42 µM (active)

## CCN(CC)S(=O)(=O)c1cccc(-c2nnc(SCCOc3ccccc3C)o2)c1
[2]
  EC50: 9.91 µM (active)

## COc1ccc(-c2cc(=O)oc3cc(OCC(=O)Nc4ccc(CCO)cc4)ccc23)cc1
HEK293 [14]
  IC50: > 20 µM (inactive)
HEK293 [15]
  IC50: > 20 µM (inactive)
HEK293 [16]
  IC50: > 20 µM (inactive)
Tumor necrosis factor
  IC50: > 20 µM (inactive)
HEK293 [17]
  EC50: 9.26 µM (active)
[18]
  IC50: 5.18 µM (active)
HEK293 [19]
  IC50: > 20 µM (inactive)

## Cc1cccc(N2C(=O)C(Cl)=C(N(C)C)C2=O)c1
[8]
  IC50: > 50 µM (inconclusive)

## COC(=O)c1ccc(N2CCN(C)CC2)c(NC(=O)COc2ccccc2)c1
[7]
  EC50: 5.96 µM (active)

## Clc1ccc(CN(CC2CCCO2)C(c2cccs2)c2nnnn2C2CCCC2)cc1 (stereo not drawn)
[2]
  EC50: 6.56 µM (active)

## CCOC(=O)Cc1csc(NC(=O)COc2ccc3ccccc3c2)n1
[2]
  EC50: 2.56 µM (active)

## O=c1oc(CCCO)cc2ccc(C#Cc3ccsc3)cc12
[3]
  CC50: > 40 µM (active)

## CCOc1cc(/C=N/Nc2ccc(S(=O)(=O)Nc3ccccc3C(=O)O)cc2[N+](=O)[O-])cc(Cl)c1O
Genome polyprotein
  IC50: 30.4 µM (active)

## C=CC/N=c1\scc(-c2ccc(F)cc2)n1/N=C/c1ccccn1
[3]
  CC50: > 40 µM (active)

## CSc1ccc(N=Nc2c(C)[nH]n(C)c2=O)cc1
Cells [20]
  IC50: 15.6 µM (active)

## O=C(N/N=C/c1ccccn1)c1cc([N+](=O)[O-])cc([N+](=O)[O-])c1
[21]
  AC50: 6.54 µM (active)
Cells [20]
  IC50: 40.2 µM (active)
